In ChEMBL document CHEMBL1201862, “PubChem BioAssay data set” (2004):
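Where inhibition never reached the appropriate level, the endpoint shown equals the highest concentration tested. Otherwise, values were interpolated linearly from a five-concentration, 48-hour dose response in 96-well plates. Here, GI50 denotes the concentration required for 50% inhibition of growth.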 Active and inactive are the calls of the source. Cut-off read from the data, not from the text of the source: active = GI50 up to about 1.1 µM and inactive = higher.

Key:
Test in all cases: inhibition of tumour cell growth, NCI panel, 48 h
[1] = test system: BT-549
[2] = test system: CAKI-1
[3] = test system: COLO 205
[4] = test system: HCT-15
[5] = test system: HOP-92
[6] = test system: IGROV-1
[7] = test system: MCF7
[8] = test system: MOLT-4
[9] = test system: Malme-3M
[10] = test system: NCI-H226
[11] = test system: OVCAR-4
[12] = test system: OVCAR-5
[13] = test system: PC-3
[14] = test system: SF-539
[15] = test system: SK-MEL-28
[16] = test system: SK-MEL-2
[17] = test system: SK-MEL-5
[18] = test system: SN12C
[19] = test system: U-251
[20] = test system: UACC-257

Row | Compound | GI50 [1] | GI50 [2] | GI50 [3] | GI50 [4] | GI50 [5] | GI50 [6] | GI50 [7] | GI50 [8] | GI50 [9] | GI50 [10] | GI50 [11] | GI50 [12] | GI50 [13] | GI50 [14] | GI50 [15] | GI50 [16] | GI50 [17] | GI50 [18] | GI50 [19] | GI50 [20]
1 | CCCCNCCCNCCCNC(=O)c1csc(-c2csc(CCNC(=O)C(NC(=O)C(C)C(O)C(C)NC(=O)C(NC(=O)c3nc(C(CC(N)=O)NCC(N)C(N)=O)nc(N)c3C)C(OC3OC(CO)C(O)C(O)C3OC3OC(CO)C(O)C(OC(N)=O)C3O)c3c[nH]cn3)C(C)O)n2)n1 (stereo not given) | > 50 µM (inactive) | 0.362 µM (active) | 9.44 µM (inactive) | 24.9 µM | 0.0798 µM (active) | 4.04 µM (inactive) | 1.86 µM (inactive) | 2.07 µM (inactive) | 0.294 µM (active) | 0.175 µM (active) | 5.75 µM (inactive) | 2.3 µM (inactive) | 23.6 µM (inactive) | < 0.01 µM (active) | 13.6 µM (inactive) | 2.25 µM (inactive) | 0.247 µM (active) | 2.21 µM (inactive) | 0.489 µM (active) | 14.3 µM (inactive)
2 | O=C(O)C1CCCCC1C(=O)Nc1nc2ccccc2[nH]1 (stereo not given) | > 100 µM (inactive) | > 100 µM (inactive) | > 100 µM (inactive) | > 100 µM | > 100 µM (inactive) | > 100 µM (inactive) | > 100 µM (inactive) | 39.5 µM (inactive) | > 100 µM (inactive) | > 100 µM (inactive) | > 100 µM (inactive) | > 100 µM (inactive) | > 100 µM (inactive) | > 100 µM (inactive) | > 100 µM (inactive) | > 100 µM (inactive) | > 100 µM (inactive) | > 100 µM (inactive) | > 100 µM (inactive) | > 100 µM (inactive)
